The test has as its system IL-6 amplifier. Description: Example 2: PI3 kinase inhibitors, mIL-6 protein production on IL-6 amplifier activation in BC-1 cells (ELISA). The format is cell-based. The following applies: 24 hours, conditions (a) to (d), 0 or 100 ng/ml mouse epiregulin, LY294002 0.1-10, PIK75 0.01-1.0 micromole/L. How it is done: 2×10^5 mouse BC-1 cells were cultured in an RPMI 1640 medium for 24 hours under each of the following conditions: • (a) in the presence of 10% FBS, • (b) with the addition of 50 ng/ml of hIL-6 protein and 50 ng/ml of hIL-6R protein (hereinafter referred to as “hIL-6/6R proteins”) and in the presence of 10% FBS, • (c) with the addition of 50 ng/ml of mIL-17A protein and in the presence of 10% FBS, • (d) with the addition of hIL-6/6R proteins at 50 ng/ml and mIL-17A protein at 50 ng/ml and in the presence of 10% FBS, • (e) in the absence of FBS, • (f) with the addition of hIL-6/6R proteins each at 50 ng/ml and in the absence of FBS, • (g) with the addition of 50 ng/ml of mIL-17A protein and in the absence of FBS, or • (h) with the addition of hIL-6/6R proteins each at 50 ng/ml and mIL-17A protein at 50 ng/ml and in the absence of FBS. […]
After the culture, the production amount of mouse IL-6 protein under each condition was quantified by an ELISA method. […]
(In an ELISA, binding on a coated surface is turned into a signal by an enzyme label.)

Regarding `O=c1cc(N2CCOCC2)oc2c(-c3ccccc3)cccc12` [LY294002, 2-(4-Morpholinyl)-8-phenyl-4H-1-benzopyran-4-one], the “increase in the expression amount of mIL-6 protein due to the activation of IL-6 amplifier” value is listed as “can be suppressed”.

These data come from patent US20130236473A1, “THERAPEUTIC AGENTS AND PROPHYLACTIC AGENTS FOR SYMPTOMS ACCOMPANYING AUTOIMMUNE DISEASES, INFLAMMATORY DISEASES, ALLERGY DISEASES AND ORGAN TRANSPLANTS” (OSAKA UNIVERSITY, priority 2010, published 2013).
